Measured values taken from patent US12595280B2, “Phosphoramidates for the treatment of hepatitis B virus” (priority 2014, dated 2026).
pEC50: −log10 of the molar value. Where two headings read alike, the source gives them in different places.

Columns and labels:
HBV = HBV efficacy assay: viral DNA in HepG2.2.15 supernatant by qPCR; assay type: cell-based; settings: Hepatitis B virus; for EC50: HepG2.2.15, 144 h, read-out: HBV Efficacy Assay EC50 (μM); for pEC50: 144 h, HepG2.2.15 cells, 6 days, viral DNA in supernatant by qPCR, read-out: HBV Efficacy Assay EC50
Description: HepG2.2.15 cells (100 μL) in RPMI1640 medium with 10% fetal bovine serum was added to all wells of a 96-well plate at a density of 1×10^4 cells per well and the plate was incubated at 37° C. in an environment of 5% CO2 for 24 hours. Following incubation, six ten-fold serial dilutions of test compound prepared in RPMI1640 medium with 10% fetal bovine serum were added to individual wells of the plate in triplicate. Six wells in the plate received medium alone as a virus only control. The plate was incubated for 6 days at 37° C. in an environment of 5% CO2. The culture medium was changed on day 3 with medium containing the indicated concentration of each compound. One hundred microliters of supernatant was collected from each well for analysis of viral DNA by qPCR and cytotoxicity was evaluated by XTT staining of the cell culture monolayer on the sixth day.
Ten microliters of cell culture supernatant collected on the sixth day was diluted in qPCR dilution buffer (40 μg/mL sheared salmon sperm DNA) and boiled for 15 minutes. Quantitative real time PCR was performed in […] using an Applied Biosystems 7900HT Sequence Detection System and the supporting SDS 2.4 software. Five microliters (5 μL) of boiled DNA for each sample and serial 10-fold dilutions of a quantitative DNA standard were subjected to real time Q-PCR using Platinum Quantitative PCR SuperMix-UDG (Invitrogen) and specific DNA oligonucleotide primers (IDT, Coralville, […]) HBV-AD38-qF1 (5′-CCGTCTGTGCCTTCTCATCTG-3′) (SEQ ID NO: 1), HBV-AD38-qR1 (5′-AGT CCA AGA GTY CTC TTA TRY AAG ACC TT-3′) (SEQ ID NO: 2), and HBV-AD38-qP1 (5′-FAM CCG TGT GCA/ZEN/CTT CGC TTC ACC TCT GC-3′BHQ1) (SEQ ID NO: 3, underlined portion only) at a final concentration of 0.2 μM for each primer in a total reaction volume of 15 μL. The HBV DNA copy number in each sample was interpolated from the standard curve by the SDS.24 software and the data were imported into an Excel spreadsheet for analysis.

[1] = system: HBV encoded polymerase (Hepatitis B virus genotype D subtype ayw); settings: cited from earlier work
Chain of HBV encoded polymerase (Hepatitis B virus genotype D subtype ayw) (P03156 whole entry): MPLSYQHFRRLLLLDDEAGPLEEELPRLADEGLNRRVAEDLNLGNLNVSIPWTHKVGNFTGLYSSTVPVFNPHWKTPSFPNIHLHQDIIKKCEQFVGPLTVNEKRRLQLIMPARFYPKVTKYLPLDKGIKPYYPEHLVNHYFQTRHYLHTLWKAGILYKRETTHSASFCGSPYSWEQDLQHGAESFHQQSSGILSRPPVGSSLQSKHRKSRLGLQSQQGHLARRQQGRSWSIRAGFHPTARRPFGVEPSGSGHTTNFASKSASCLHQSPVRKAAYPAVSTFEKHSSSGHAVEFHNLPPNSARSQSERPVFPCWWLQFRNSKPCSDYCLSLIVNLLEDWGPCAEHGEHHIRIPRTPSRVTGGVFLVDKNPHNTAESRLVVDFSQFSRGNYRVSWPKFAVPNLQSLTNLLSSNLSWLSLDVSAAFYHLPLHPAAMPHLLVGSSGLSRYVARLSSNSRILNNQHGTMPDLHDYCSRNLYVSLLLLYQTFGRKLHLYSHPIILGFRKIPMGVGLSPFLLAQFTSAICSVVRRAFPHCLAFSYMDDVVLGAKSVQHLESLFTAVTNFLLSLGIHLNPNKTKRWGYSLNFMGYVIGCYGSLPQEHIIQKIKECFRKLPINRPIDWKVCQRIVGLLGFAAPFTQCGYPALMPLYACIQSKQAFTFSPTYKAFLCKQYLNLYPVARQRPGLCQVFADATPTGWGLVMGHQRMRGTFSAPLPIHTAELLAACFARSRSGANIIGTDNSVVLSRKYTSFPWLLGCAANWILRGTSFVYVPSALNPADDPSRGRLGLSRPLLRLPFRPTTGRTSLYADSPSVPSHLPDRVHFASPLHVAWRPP

[2] = human, in vivo; cited from earlier work

In the case of `Cc1cn([C@H]2O[C@@H](CO[P@](=O)(N[C@@H](C)C(=O)OC(C)C)Oc3ccccc3)C(O)C2F)c(=S)[nH]c1=O` (some centres unmarked), the EC50 (HBV) was greater than 100 µM.
Compound `Cc1cn([C@H]2O[C@@H](CO[P@@](=O)(N[C@@H](C)C(=O)OC(C)C)Oc3ccccc3)[C@H](O)[C@H]2F)c(=O)[nH]c1=O` has an EC50 (HBV) of 1.71 µM.
Compound `Cc1cn([C@H]2O[C@@H](CO[P@](=O)(N[C@@H](C)C(=O)OC(C)C)Oc3ccccc3)[C@H](O[P@](=O)(N[C@@H](C)C(=O)OC(C)C)Oc3ccccc3)[C@H]2F)c(=O)[nH]c1=O` has an EC50 (HBV) of 2.39 µM.
Work on `Cc1cn([C@H]2O[C@@H](CO)[C@H](O)[C@H]2F)c(=O)[nH]c1=O` yielded an EC50 (HBV) of 0.46 µM.
`Cc1cn([C@H]2O[C@@H](CO[P@@](=O)(N[C@@H](C)C(=O)OC(C)C)Oc3ccccc3)C(O)C2F)c(=S)[nH]c1=O` (some centres unmarked) showed an EC50 (HBV) greater than 100 µM.
In the case of `Cc1cn([C@H]2O[C@@H](CO[P@@](=O)(N[C@@H](C)C(=O)OC(C)C)Oc3ccccc3)[C@H](O[P@@](=O)(N[C@@H](C)C(=O)OC(C)C)Oc3ccccc3)[C@H]2F)c(=O)[nH]c1=O`, the EC50 (HBV) was 2.9 µM.
Compound `Cc1cn([C@H]2O[C@@H](CO)C(O)C2F)c(=S)[nH]c1=O` (some centres unmarked) has a pEC50 (HBV) of less than 4.00.
For `Nc1ccn([C@@H]2CS[C@H](CO)O2)c(=O)n1`, the pEC50 (HBV) was 6.85.
`Cc1cn([C@H]2O[C@@H](CO[P@](=O)(N[C@@H](C)C(=O)OC(C)C)Oc3ccccc3)[C@H](O)[C@H]2F)c(=O)[nH]c1=O` gave an EC50 (HBV) of 4.29 µM.
For `Cc1cn([C@H]2O[C@@H](COP(=O)(O)OP(=O)(O)OP(=O)(O)O)C(O)C2F)c(=O)[nH]c1=O` (some centres unmarked) [clevudine triphosphate, Clevudine-5′-Triphosphate], the “mode of inhibition of the HBV encoded polymerase” value [1] is given as “competitive non-substrate inhibitor”.
In the case of `Cc1cn([C@H]2O[C@@H](CO)[C@H](O)[C@H]2F)c(=O)[nH]c1=O` [Clevudine], the “adverse effect in patients” value [2] is given as “drug-related skeletal myopathy”.
